# Laboratory results: US6479435B1, “Diaryl ethers and processes for their preparation and herbicidal and desiccant compositions containing them” (ISK Americas Incorporated, priority 1997, dated 2002)
# Legend:
# Type in all cases: in vivo
# [1] = test system: ivyleaf morningglory (Ipomoea hederacea, IPOHE); experiment: Pre-emerge greenhouse herbicide test, phytotoxicity rating; settings: 14 days after application, rating scale 0-100
# Outline: (§1)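 Seeds sown in sandy loam one day before track-sprayer application of acetone solutions at 125–1000 g ai/ha (187 l/ha), then surface-watered to incorporate and bottom-watered. Injury scored visually at 14 days on a 0–100 scale (0 no damage, 100 complete death).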
# [2] = test system: lambsquarters (Chenopodium album, CHEAL); experiment: as above; settings: 14 days after application, rating scale 0-100
# Outline: as §1
# [3] = test system: velvetleaf (Abutilon theophrasti, ABUTH); experiment: as above; settings: 14 days after application, rating scale 0-100
# Outline: as §1
# [4] = test system: barnyardgrass (Echinochloa crusgalli, ECHCG); experiment: as above; settings: 14 days after application, rating scale 0-100
# Outline: as §1
# [5] = test system: Johnsongrass (Sorghum halepense, SORHA); experiment: as above; settings: 14 days after application, rating scale 0-100
# Outline: as §1
# [6] = test system: large crabgrass (Digitaria sanguinalis, DIGSA); experiment: as above; settings: 14 days after application, rating scale 0-100
# Outline: as §1
# [7] = test system: common ragweed (Ambrosia artemisiifolia L., AMBEL); experiment: as above; settings: 14 days after application, rating scale 0-100
# Outline: as §1
# [8] = test system: sicklepod (Cassia obtusifolia, CASOB); experiment: as above; settings: 14 days after application, rating scale 0-100
# Outline: as §1
# [9] = test system: redroot pigweed (Amaranthus retroflexus, AMARE); experiment: as above; settings: 14 days after application, rating scale 0-100
# Outline: as §1
# [10] = test system: green foxtail (Setaria viridis, SETVI); experiment: as above; settings: 14 days after application, rating scale 0-100
# Outline: as §1
# [11] = test system: soybean (Glycine max L., var. Pella 86, SOY); experiment: Post-emerge greenhouse test, crop damage rating; parameters: key to crop damage rating SOY: 0-100 scale: 0 = no damage, 100 = complete death of all plants; settings: 14 days after application, scale 0-100
# Outline: (§2)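 Plants at the 2-3 leaf stage, sown 8-21 days earlier, were track-sprayed post-emergence with compound in acetone plus 0.25% v/v non-ionic surfactant at 63-1000 g ai/ha (187 l/ha). Damage was rated at 14 days on a 0-100 scale (0 none, 100 all plants dead), for both crop injury and weed control.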
# [12] = test system: upland rice (Oryza sp., var.Tebonnet, RICE); experiment: Pre-emerge greenhouse test, crop damage rating; settings: 14 days after application, rating scale 0-100
# Outline: as §1
# [13] = test system: field corn (Zea mays L., var. Dekalb 535, CORN); experiment: Pre-emerge greenhouse test, crop damage rating; settings: 14 days after application, rating scale 0-100
# Outline: as §1
# [14] = test system: soybean (Glycine max L., var. Pella 86, SOY); experiment: Pre-emerge greenhouse test, crop damage rating; parameters: key to SOY crop damage rating: 0 = no damage, 100 = complete death of all plants; settings: 14 days after application, rating scale 0-100
# Outline: as §1
# [15] = test system: upland rice (Oryza sp., var.Tebonnet, RICE); experiment: Post-emerge greenhouse test, crop damage rating; settings: 14 days after application, scale 0-100
# Outline: as §2
# [16] = test system: field corn (Zea mays L., var. Dekalb 535, CORN); experiment: Post-emerge greenhouse test, crop damage rating; settings: 14 days after application, scale 0-100
# Outline: as §2
# [17] = test system: common ragweed (Ambrosia artemisiifolia L., AMBEL); experiment: Post-emerge greenhouse herbicide test, phytotoxicity rating; settings: 14 days after application, scale 0-100
# Outline: as §2
# [18] = test system: ivyleaf morningglory (Ipomoea hederacea, IPOHE); experiment: as above; settings: 14 days after application, scale 0-100
# Outline: as §2
# [19] = test system: lambsquarters (Chenopodium album, CHEAL); experiment: as above; settings: 14 days after application, scale 0-100
# Outline: as §2
# [20] = test system: velvetleaf (Abutilon theophrasti, ABUTH); experiment: as above; settings: 14 days after application, scale 0-100
# Outline: as §2
# [21] = test system: barnyardgrass (Echinochloa crusgalli, ECHCG); experiment: as above; settings: 14 days after application, scale 0-100
# Outline: as §2
# [22] = test system: Johnsongrass (Sorghum halepense, SORHA); experiment: as above; settings: 14 days after application, scale 0-100
# Outline: as §2
# [23] = test system: large crabgrass (Digitaria sanguinalis, DIGSA); experiment: as above; settings: 14 days after application, scale 0-100
# Outline: as §2
# [24] = test system: sicklepod (Cassia obtusifolia, CASOB); experiment: as above; settings: 14 days after application, scale 0-100
# Outline: as §2
# [25] = test system: redroot pigweed (Amaranthus retroflexus, AMARE); experiment: as above; settings: 14 days after application, scale 0-100
# Outline: as §2
# [26] = test system: green foxtail (Setaria viridis, SETVI); experiment: as above; settings: 14 days after application, scale 0-100
# Outline: as §2
smiles,measurement,setting,value
CCOC(=O)C(C)Oc1cc([N+](=O)[O-])c(Oc2cc(-n3c(=O)n4n(c3=S)CCCC4)c(F)cc2Cl)cc1Cl (centres unmarked) [Compound 8-38],IPOHE phytotoxicity rating,[1]; Rate 125 g al/ha,0
same,IPOHE phytotoxicity rating,[1]; Rate 250 g al/ha,30
same,CHEAL phytotoxicity rating,[2]; Rate 125 g al/ha,80
same,CHEAL phytotoxicity rating,[2]; Rate 250 g al/ha,90
same,ABUTH phytotoxicity rating,[3]; Rate 125 g al/ha,100
same,ABUTH phytotoxicity rating,[3]; Rate 250 g al/ha,100
same,ECHCG phytotoxicity rating,[4]; Rate 125 g al/ha,0
same,ECHCG phytotoxicity rating,[4]; Rate 250 g al/ha,0
same,SORHA phytotoxicity rating,[5]; Rate 125 g al/ha,0
same,SORHA phytotoxicity rating,[5]; Rate 250 g al/ha,0
same,DIGSA phytotoxicity rating,[6]; Rate 125 g al/ha,0
same,DIGSA phytotoxicity rating,[6]; Rate 250 g al/ha,0
same,AMBEL phytotoxicity rating,[7]; Rate 125 g al/ha,0
same,AMBEL phytotoxicity rating,[7]; Rate 250 g al/ha,0
same,CASOB phytotoxicity rating,[8]; Rate 125 g al/ha,0
same,CASOB phytotoxicity rating,[8]; Rate 250 g al/ha,0
same,AMARE phytotoxicity rating,[9]; Rate 125 g al/ha,30
same,AMARE phytotoxicity rating,[9]; Rate 250 g al/ha,80
same,SETVI phytotoxicity rating,[10]; Rate 125 g al/ha,0
same,SETVI phytotoxicity rating,[10]; Rate 250 g al/ha,70
same,crop damage rating SOY,[11]; rate 63 g ai/ha,10
same,crop damage rating SOY,[11]; rate 250 g ai/ha,20
same,RICE crop damage rating,[12]; Rate 125 g al/ha,0
same,RICE crop damage rating,[12]; Rate 250 g al/ha,0
same,CORN crop damage rating,[13]; Rate 125 g al/ha,0
same,CORN crop damage rating,[13]; Rate 250 g al/ha,0
same,SOY crop damage rating,[14]; Rate 125 g al/ha,0
same,SOY crop damage rating,[14]; Rate 250 g al/ha,0
same,crop damage rating RICE,[15]; rate 63 g ai/ha,20
same,crop damage rating RICE,[15]; rate 250 g ai/ha,50
same,crop damage rating CORN,[16]; rate 63 g ai/ha,0
same,crop damage rating CORN,[16]; rate 250 g ai/ha,20
same,phytotoxicity rating AMBEL,[17]; rate 63 g ai/ha,20
same,phytotoxicity rating AMBEL,[17]; rate 250 g ai/ha,50
same,phytotoxicity rating IPOHE,[18]; rate 63 g ai/ha,40
same,phytotoxicity rating IPOHE,[18]; rate 250 g ai/ha,100
same,phytotoxicity rating CHEAL,[19]; rate 63 g ai/ha,40
same,phytotoxicity rating CHEAL,[19]; rate 250 g ai/ha,50
same,phytotoxicity rating ABUTH,[20]; rate 63 g ai/ha,100
same,phytotoxicity rating ABUTH,[20]; rate 250 g ai/ha,00
same,phytotoxicity rating ECHCG,[21]; rate 63 g ai/ha,0
same,phytotoxicity rating ECHCG,[21]; rate 250 g ai/ha,0
same,phytotoxicity rating SORHA,[22]; rate 63 g ai/ha,0
same,phytotoxicity rating SORHA,[22]; rate 250 g ai/ha,0
same,phytotoxicity rating DIGSA,[23]; rate 63 g ai/ha,0
same,phytotoxicity rating DIGSA,[23]; rate 250 g ai/ha,0
same,phytotoxicity rating CASOB,[24]; rate 63 g ai/ha,30
same,phytotoxicity rating CASOB,[24]; rate 250 g ai/ha,30
same,phytotoxicity rating AMARE,[25]; rate 63 g ai/ha,60
same,phytotoxicity rating AMARE,[25]; rate 250 g ai/ha,70
same,phytotoxicity rating SETVI,[26]; rate 63 g ai/ha,0
same,phytotoxicity rating SETVI,[26]; rate 250 g ai/ha,20
Nc1cccnc1Oc1cc(-n2c(=O)n3n(c2=S)CCCC3)c(F)cc1Cl [Compound 8-42],IPOHE phytotoxicity rating,[1]; Rate 125 g al/ha,30
same,IPOHE phytotoxicity rating,[1]; Rate 250 g al/ha,50
same,CHEAL phytotoxicity rating,[2]; Rate 125 g al/ha,80
same,CHEAL phytotoxicity rating,[2]; Rate 250 g al/ha,100
same,ABUTH phytotoxicity rating,[3]; Rate 125 g al/ha,100
same,ABUTH phytotoxicity rating,[3]; Rate 250 g al/ha,100
same,ECHCG phytotoxicity rating,[4]; Rate 125 g al/ha,0
same,ECHCG phytotoxicity rating,[4]; Rate 250 g al/ha,0
same,SORHA phytotoxicity rating,[5]; Rate 125 g al/ha,0
same,SORHA phytotoxicity rating,[5]; Rate 250 g al/ha,0i
same,DIGSA phytotoxicity rating,[6]; Rate 125 g al/ha,0
same,DIGSA phytotoxicity rating,[6]; Rate 250 g al/ha,0
same,AMBEL phytotoxicity rating,[7]; Rate 125 g al/ha,0
same,AMBEL phytotoxicity rating,[7]; Rate 250 g al/ha,30
same,CASOB phytotoxicity rating,[8]; Rate 125 g al/ha,100
same,CASOB phytotoxicity rating,[8]; Rate 250 g al/ha,80
same,AMARE phytotoxicity rating,[9]; Rate 125 g al/ha,100
same,AMARE phytotoxicity rating,[9]; Rate 250 g al/ha,100
same,SETVI phytotoxicity rating,[10]; Rate 125 g al/ha,0
same,SETVI phytotoxicity rating,[10]; Rate 250 g al/ha,0
same,crop damage rating SOY,[11]; rate 63 g ai/ha,20
same,crop damage rating SOY,[11]; rate 250 g ai/ha,60
same,RICE crop damage rating,[12]; Rate 125 g al/ha,0
same,RICE crop damage rating,[12]; Rate 250 g al/ha,0
same,CORN crop damage rating,[13]; Rate 125 g al/ha,0
same,CORN crop damage rating,[13]; Rate 250 g al/ha,0
same,SOY crop damage rating,[14]; Rate 125 g al/ha,0
same,SOY crop damage rating,[14]; Rate 250 g al/ha,20
same,crop damage rating RICE,[15]; rate 63 g ai/ha,0
same,crop damage rating RICE,[15]; rate 250 g ai/ha,0
same,crop damage rating CORN,[16]; rate 63 g ai/ha,0
same,crop damage rating CORN,[16]; rate 250 g ai/ha,0
same,phytotoxicity rating AMBEL,[17]; rate 63 g ai/ha,40
same,phytotoxicity rating AMBEL,[17]; rate 250 g ai/ha,90
same,phytotoxicity rating IPOHE,[18]; rate 63 g ai/ha,60
same,phytotoxicity rating IPOHE,[18]; rate 250 g ai/ha,70
same,phytotoxicity rating CHEAL,[19]; rate 63 g ai/ha,50
same,phytotoxicity rating CHEAL,[19]; rate 250 g ai/ha,80
same,phytotoxicity rating ABUTH,[20]; rate 63 g ai/ha,100
same,phytotoxicity rating ABUTH,[20]; rate 250 g ai/ha,100
same,phytotoxicity rating ECHCG,[21]; rate 63 g ai/ha,0
same,phytotoxicity rating ECHCG,[21]; rate 250 g ai/ha,0
same,phytotoxicity rating SORHA,[22]; rate 63 g ai/ha,0
same,phytotoxicity rating SORHA,[22]; rate 250 g ai/ha,0
same,phytotoxicity rating DIGSA,[23]; rate 63 g ai/ha,0
same,phytotoxicity rating DIGSA,[23]; rate 250 g ai/ha,0
same,phytotoxicity rating CASOB,[24]; rate 63 g ai/ha,0
same,phytotoxicity rating CASOB,[24]; rate 250 g ai/ha,0
same,phytotoxicity rating AMARE,[25]; rate 63 g ai/ha,50
same,phytotoxicity rating AMARE,[25]; rate 250 g ai/ha,95
same,phytotoxicity rating SETVI,[26]; rate 63 g ai/ha,0
same,phytotoxicity rating SETVI,[26]; rate 250 g ai/ha,0
